Measurements taken from patent publication US10335382B2, “Use of hydrogen sulfide synthesis inhibitors for cancer therapy” (THE BOARD OF REGENTS OF THE UNIVERSITY OF TEXAS SYSTEM, priority 2013, dated 2019).

Assays:
CBS [1] = molecular target: T1, CBS (Homo sapiens, UniProt P35520); assay: H2S production in colon cancer tissue extracts (methylene blue method); type: biochemical; parameters: from tissue; host or cells: human colorectal tumor tissue and patient-matched normal mucosa homogenates; conditions: AOAA 1 mM; L-cysteine 3 mM, L-homocysteine 0.5 mM, 37° C., 30 min
T1 sequence (P35520 1-551): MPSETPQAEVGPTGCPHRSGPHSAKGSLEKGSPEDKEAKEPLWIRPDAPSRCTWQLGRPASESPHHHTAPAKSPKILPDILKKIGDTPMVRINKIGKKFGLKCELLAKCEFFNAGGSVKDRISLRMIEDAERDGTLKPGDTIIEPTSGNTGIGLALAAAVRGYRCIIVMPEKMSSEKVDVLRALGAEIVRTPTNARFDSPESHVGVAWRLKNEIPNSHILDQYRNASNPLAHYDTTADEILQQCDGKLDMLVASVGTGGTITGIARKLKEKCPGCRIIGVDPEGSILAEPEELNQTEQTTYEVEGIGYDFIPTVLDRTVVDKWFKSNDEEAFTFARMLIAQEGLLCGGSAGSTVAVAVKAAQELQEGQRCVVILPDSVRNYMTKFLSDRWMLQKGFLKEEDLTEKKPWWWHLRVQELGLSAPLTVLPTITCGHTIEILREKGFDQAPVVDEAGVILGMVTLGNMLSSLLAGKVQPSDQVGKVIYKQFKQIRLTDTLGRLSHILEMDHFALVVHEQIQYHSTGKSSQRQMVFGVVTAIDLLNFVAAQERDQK
Source text: FIG. 1. CBS is overexpressed in human colorectal cancer. (A) Representative Western blot of CBS, CSE and 3-MST protein expression in human colorectal cancer specimens, paired with the corresponding normal mucosa tissues. PVDF membranes were probed with rabbit polyclonal antibodies against CBS, CSE and 3-MST. […] (C, D) CBS was highly expressed in three different colon cancer cell lines (LoVo, HCT116 and HT29); low expression was detected in the non-tumorigenic normal colon mucosa cells (NCM356) (arbitrary relative densitometric units were normalized with β-actin using image analysis software) (*p<0.05 vs NCM356 cells) (E) or in colon cancer cell lines (F) by the methylene blue method. H2S production was stimulated in tissue or cell lysates by incubation at 37° C. (30 min) in presence of the CBS substrates L-cysteine (3 mM) and L-homocysteine (0.5 mM). […] Western blots show representatives of at least n=3 experiments; H2S measurements represent mean±SEM of at least n=3 determinations.
H2S production can be measured in a tissue homogenate by using a methylene blue assay. Briefly, 1% zinc acetate is added to a tissue homogenate to trap H2S followed by 10% trichloroacetic acid to precipitate proteins. […] The absorbance of the resulting solution is measured at 655 nm. H2S content is calculated against a calibration curve of standard H2S solutions. […]

CBS [2] = molecular target: T1, CBS; parameters: These studies used full-length human CBS enzyme; made in house; host or cells: E. coli BL21 (DE3) Codon Plus; conditions: cited from earlier work

## NOCC(=O)O [AOAA, aminooxyacetic acid]
CBS [1]
  H2S-producing activity of CBS in tissue extracts: blocked the H2S-producing activity
CBS [2]
  concentrations exerting inhibitory effects on human recombinant CBS: low micromolar concentrations
